# Assay results: BigSolDB 2.1
compound,measurement,setting,value
Nc1cccc2c1CN(C1CCC(=O)NC1=O)C2=O (stereo not given),solubility (mole fraction),"in acetonitrile, 273.15 K",0.000444
same,solubility (mole fraction),"in acetonitrile, 278.15 K",0.000458
same,solubility (mole fraction),"in acetonitrile, 283.15 K",0.000476
same,solubility (mole fraction),"in acetonitrile, 288.15 K",0.000496
same,solubility (mole fraction),"in acetonitrile, 293.15 K",0.000516
same,solubility (mole fraction),"in acetonitrile, 298.15 K",0.000536
same,solubility (mole fraction),"in acetonitrile, 303.15 K",0.000558
same,solubility (mole fraction),"in acetonitrile, 308.15 K",0.000579
same,solubility (mole fraction),"in acetonitrile, 313.15 K",0.000601
same,solubility (mole fraction),"in acetonitrile, 318.15 K",0.000623
same,solubility (mole fraction),"in ethyl acetate, 273.15 K",8e-05
same,solubility (mole fraction),"in ethyl acetate, 278.15 K",9.2e-05
same,solubility (mole fraction),"in ethyl acetate, 283.15 K",0.000105
same,solubility (mole fraction),"in ethyl acetate, 288.15 K",0.00012
same,solubility (mole fraction),"in ethyl acetate, 293.15 K",0.000136
same,solubility (mole fraction),"in ethyl acetate, 298.15 K",0.000152
same,solubility (mole fraction),"in ethyl acetate, 303.15 K",0.000168
same,solubility (mole fraction),"in ethyl acetate, 308.15 K",0.000186
same,solubility (mole fraction),"in ethyl acetate, 313.15 K",0.000206
same,solubility (mole fraction),"in ethyl acetate, 318.15 K",0.000226
same,solubility (mole fraction),"in isopropanol, 273.15 K",2.5e-05
same,solubility (mole fraction),"in isopropanol, 278.15 K",3.2e-05
same,solubility (mole fraction),"in isopropanol, 283.15 K",4.1e-05
same,solubility (mole fraction),"in isopropanol, 288.15 K",5.2e-05
same,solubility (mole fraction),"in isopropanol, 293.15 K",6.6e-05
same,solubility (mole fraction),"in isopropanol, 298.15 K",8e-05
same,solubility (mole fraction),"in isopropanol, 303.15 K",9.5e-05
same,solubility (mole fraction),"in isopropanol, 308.15 K",0.000114
same,solubility (mole fraction),"in isopropanol, 313.15 K",0.000136
same,solubility (mole fraction),"in isopropanol, 318.15 K",0.00016
same,solubility (mole fraction),"in methanol, 273.15 K",0.00019
same,solubility (mole fraction),"in methanol, 278.15 K",0.000204
same,solubility (mole fraction),"in methanol, 283.15 K",0.00022
same,solubility (mole fraction),"in methanol, 288.15 K",0.000237
same,solubility (mole fraction),"in methanol, 293.15 K",0.000256
same,solubility (mole fraction),"in methanol, 298.15 K",0.000276
same,solubility (mole fraction),"in methanol, 303.15 K",0.000301
same,solubility (mole fraction),"in methanol, 308.15 K",0.000326
same,solubility (mole fraction),"in methanol, 313.15 K",0.000351
same,solubility (mole fraction),"in methanol, 318.15 K",0.000383
